Measurements from ChEMBL document CHEMBL3885881, “DrugMatrix”.

Species on record: Rattus norvegicus
Assay: DrugMatrix - Regimen: Daily Repeat
Format: toxicity, organism-based, Sprague-Dawley
Design: regimen Daily Repeat, gender Male, age 6-8 weeks
Details: in vivo, po, 200 mg/kg, route oral GAVAGE, dose level High, vehicle .5 % CMC; for ABSOLUTE BASOPHIL / ABSOLUTE EOSINOPHIL / ABSOLUTE LYMPHOCYTE / ABSOLUTE MONOCYTE / ABSOLUTE SEGMENTED NEUTROPHIL / BASOPHIL / EOSINOPHIL / ERYTHROCYTE COUNT / HEMATOCRIT / HEMOGLOBIN / LEUKOCYTE COUNT / LYMPHOCYTE / MEAN CORPUSCULAR HEMOGLOBIN / MEAN CORPUSCULAR HEMOGLOBIN CONCENTRATION / MEAN CORPUSCULAR VOLUME / MONOCYTE / NEUTROPHIL / NUCLEATED RED BLOOD CELLS / PLATELET COUNT: tissue Blood; for ALANINE AMINOTRANSFERASE / ALBUMIN / ALKALINE PHOSPHATASE / ASPARTATE AMINOTRANSFERASE / BLOOD UREA NITROGEN / CARBON DIOXIDE / CHLORIDE / CHOLESTEROL / CREATINE PHOSPHOKINASE / CREATININE / GLUCOSE / LACTATE DEHYDROGENASE / LIPASE / PHOSPHORUS / POTASSIUM / SODIUM / TOTAL BILIRUBIN / TOTAL PROTEIN / URIC ACID: tissue Plasma

## Nc1nc(N)c2nc(-c3ccccc3)c(N)nc2n1
72 h, time 3 day
  ABSOLUTE BASOPHIL: 0 CELLS/uL
  ABSOLUTE EOSINOPHIL: 51 CELLS/uL
  ABSOLUTE LYMPHOCYTE: 12546 CELLS/uL
  ABSOLUTE MONOCYTE: 436.67 CELLS/uL
  ABSOLUTE SEGMENTED NEUTROPHIL: 1333 CELLS/uL
  BASOPHIL: 0%
  EOSINOPHIL: 0.33%
  ERYTHROCYTE COUNT: 5.38 x10E6/uL
  HEMATOCRIT: 33.6%
  HEMOGLOBIN: 13.03 G/DL
  LEUKOCYTE COUNT: 14.37 x10E3/uL
  LYMPHOCYTE: 87.33%
  MEAN CORPUSCULAR HEMOGLOBIN: 24.23 pg
  MEAN CORPUSCULAR HEMOGLOBIN CONCENTRATION: 38.83 G/DL
  MEAN CORPUSCULAR VOLUME: 62.47 fL
  MONOCYTE: 3%
  NEUTROPHIL: 9.33%
  NUCLEATED RED BLOOD CELLS: 0.33 /100WBC
  PLATELET COUNT: 1312 x10E3/uL
  ALANINE AMINOTRANSFERASE: 57.33 u/L
  ALBUMIN: 4.17 G/DL
  ALKALINE PHOSPHATASE: 279 u/L
  ASPARTATE AMINOTRANSFERASE: 70.67 u/L
  BLOOD UREA NITROGEN: 22.33 mg/dL
  CARBON DIOXIDE: 27.67 mmol/L
  CHLORIDE: 104.67 MEQ/L
  CHOLESTEROL: 86.67 mg/dL
  CREATINE PHOSPHOKINASE: 220 u/L
  CREATININE: 0.24 mg/dL
  GLUCOSE: 154 mg/dL
  LACTATE DEHYDROGENASE: 170.33 u/L
  LIPASE: 9.33 u/L
  PHOSPHORUS: 12.93 mg/dL
  POTASSIUM: 6.66 MEQ/L
  SODIUM: 145.07 MEQ/L
  TOTAL BILIRUBIN: 0.17 mg/dL
  TOTAL PROTEIN: 5.8 G/DL
  URIC ACID: 1.5 mg/dL
120 h, time 5 day
  ABSOLUTE BASOPHIL: 0 CELLS/uL
  ABSOLUTE EOSINOPHIL: 238.67 CELLS/uL
  ABSOLUTE LYMPHOCYTE: 14472.33 CELLS/uL
  ABSOLUTE MONOCYTE: 270.33 CELLS/uL
  ABSOLUTE SEGMENTED NEUTROPHIL: 2185.33 CELLS/uL
  BASOPHIL: 0%
  EOSINOPHIL: 1.33%
  ERYTHROCYTE COUNT: 5.62 x10E6/uL
  HEMATOCRIT: 33.9%
  HEMOGLOBIN: 13.03 G/DL
  LEUKOCYTE COUNT: 17.17 x10E3/uL
  LYMPHOCYTE: 84.33%
  MEAN CORPUSCULAR HEMOGLOBIN: 23.2 pg
  MEAN CORPUSCULAR HEMOGLOBIN CONCENTRATION: 38.43 G/DL
  MEAN CORPUSCULAR VOLUME: 60.33 fL
  MONOCYTE: 1.67%
  NEUTROPHIL: 12.67%
  NUCLEATED RED BLOOD CELLS: 0.67 /100WBC
  PLATELET COUNT: 1441.67 x10E3/uL
  ALANINE AMINOTRANSFERASE: 49.33 u/L
  ALBUMIN: 4.13 G/DL
  ALKALINE PHOSPHATASE: 284.33 u/L
  ASPARTATE AMINOTRANSFERASE: 91.33 u/L
  BLOOD UREA NITROGEN: 20 mg/dL
  CARBON DIOXIDE: 27 mmol/L
  CHLORIDE: 102.67 MEQ/L
  CHOLESTEROL: 62.33 mg/dL
  CREATINE PHOSPHOKINASE: 540.67 u/L
  CREATININE: 0.21 mg/dL
  GLUCOSE: 156.67 mg/dL
  LACTATE DEHYDROGENASE: 601 u/L
  LIPASE: 8.67 u/L
  PHOSPHORUS: 13.17 mg/dL
  POTASSIUM: 5.78 MEQ/L
  SODIUM: 147.03 MEQ/L
  TOTAL BILIRUBIN: 0.13 mg/dL
  TOTAL PROTEIN: 5.8 G/DL
  URIC ACID: 1.77 mg/dL
